Reference: patent US20220264878A1, “HERBICIDAL COMPOSITION CONTAINING R-TYPE PYRIDYLOXY CARBOXYLIC ACID DERIVATIVE AND USE THEREOF” (Qingdao Kingagroot Chemical Compound Co., Ltd., priority 2019, published 2022)

Assays:
Assay in all cases: Post-emergence foliage spray, pot culture, fresh weight inhibition (Tables 1-48, 51-98, 101-148; 24 days)
Assay type in all cases: in vivo
[1] = tested on: Setaria glauca; details: Table 84
Method in brief: (§1)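 Greenhouse pot-grown weeds (15 per pot, 3 pots, 4 replicates) at the 5–6-leaf (grasses) or 6–7-leaf (broadleaf) stage were sprayed once on foliage at 450 kg/ha spray volume, 0.3 MPa. Acetone solutions were diluted in 0.1% Tween-80. Aboveground fresh weight versus blank control was recorded after 24 days.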

[2] = tested on: Eleusine indica
Method in brief: as §1

[3] = tested on: Capsella bursa-pastoris
Method in brief: as §1

[4] = tested on: Alopecurus japonicus
Method in brief: as §1

[5] = tested on: Veronica persica^2 (collected in Zhumadian of Henan Province)
Method in brief: as §1

[6] = tested on: Ipomoea purpurea; details: Table 98
Method in brief: as §1

[7] = tested on: Ludwigia prostrate
Method in brief: as §1

[8] = tested on: Sonchus arvensis
Method in brief: as §1

[9] = tested on: Abutilon theophrasti
Method in brief: as §1

[10] = tested on: Setaria viridis; details: A = A2 alone, g a.i./ha: r10 60, r11 60, r12 30, r13 30
Method in brief: as §1

[11] = tested on: Conyza Canadensis
Method in brief: as §1

[12] = tested on: Eclipta prostrate; details: fresh weight inhibition after 24 days
Method in brief: as §1

[13] = tested on: Amaranthus retroflexus
Method in brief: as §1

C[C@@H](Oc1nc(F)c(Cl)c(N)c1Cl)C(=O)O [Compound A1]
Control effect (%) of A applied alone in corresponding dose ([1]; 30 g a.i./ha): 34.7%
Control effect (%) of A applied alone in corresponding dose ([1]; 60 g a.i./ha): 57.6%
Control effect (%) of A applied alone in corresponding dose ([2]; Table 79, 75 g a.i./ha): 24.4%
Control effect (%) of A applied alone in corresponding dose ([2]; Table 79, 150 g a.i./ha): 52.2%
Control effect (%) of A applied alone in corresponding dose ([2]; Table 82, 75 g a.i./ha): 24.4%
Control effect (%) of A applied alone in corresponding dose ([2]; Table 82, 150 g a.i./ha): 52.2%
Control effect (%) of A applied alone in corresponding dose ([2]; Table 83, 75 g a.i./ha): 24.4%
Control effect (%) of A applied alone in corresponding dose ([2]; Table 83, 150 g a.i./ha): 52.2%
Control effect (%) of A applied alone in corresponding dose ([3]; A1 7.5 g a.i./ha): 36.2%
Control effect (%) of A applied alone in corresponding dose ([3]; A1 15 g a.i./ha): 75.9%
Control effect (%) of A applied alone in corresponding dose ([4]; A1 7.5 g a.i./ha): 25.6%
Control effect (%) of A applied alone in corresponding dose ([4]; A1 15 g a.i./ha): 48.1%
Control effect (%) of A applied alone in corresponding dose ([4]; A1 75 g a.i./ha): 25.6%
Control effect (%) of A applied alone in corresponding dose ([4]; A1 150 g a.i./ha): 48.1%
Control effect (%) of A applied alone in corresponding dose ([5]; Table 87, 75 g a.i./ha): 19.6%
Control effect (%) of A applied alone in corresponding dose ([5]; Table 87, 150 g a.i./ha): 42.4%
Control effect (%) of A applied alone in corresponding dose ([5]; Table 88, 75 g a.i./ha): 19.6%
Control effect (%) of A applied alone in corresponding dose ([5]; Table 88, 150 g a.i./ha): 42.4%
Control effect (%) of A applied alone in corresponding dose ([5]; Table 90, 75 g a.i./ha): 19.6%
Control effect (%) of A applied alone in corresponding dose ([5]; Table 90, 150 g a.i./ha): 42.4%
Control effect (%) of A applied alone in corresponding dose ([6]; 75 g a.i./ha): 37.7%
Control effect (%) of A applied alone in corresponding dose ([6]; 150 g a.i./ha (r12), r13 prints 75 + 7.5, A:B 20:1): 59.5%
Control effect (%) of A applied alone in corresponding dose ([7]; A1 75 g a.i./ha): 34.3%
Control effect (%) of A applied alone in corresponding dose ([7]; A1 150 g a.i./ha): 72.4%
Control effect (%) of A applied alone in corresponding dose ([8]; A1 30 g a.i./ha): 33.3%
Control effect (%) of A applied alone in corresponding dose ([8]; A1 60 g a.i./ha): 70.7%
Control effect (%) of A applied alone in corresponding dose ([9]; A1 7.5 g a.i./ha): 44.3%
Control effect (%) of A applied alone in corresponding dose ([9]; A1 15 g a.i./ha): 79.6%

C[C@@H](Oc1nc(F)c(Cl)c(N)c1Cl)C(=O)OCC1CCCO1 (stereo partly drawn) [Compound A2]
Control effect (%) of A applied alone in corresponding dose ([10]; A2 alone at 30 g a.i./ha): 32.7%
Control effect (%) of A applied alone in corresponding dose ([10]; A2 alone at 60 g a.i./ha): 56.3%
Control effect (%) of A applied alone in corresponding dose ([11]; A2 75 g a.i./ha): 36.7%
Control effect (%) of A applied alone in corresponding dose ([11]; A2 150 g a.i./ha): 57.2%
Control effect (%) of A applied alone in corresponding dose ([12]; A 75 g a.i/ha): 32.3%
Control effect (%) of A applied alone in corresponding dose ([12]; A 150 g a.i/ha): 68.4%
Control effect (%) of A applied alone in corresponding dose ([13]; A2 75 g a.i./ha): 22.9%
Control effect (%) of A applied alone in corresponding dose ([13]; A2 150 g a.i./ha): 52.4%
